Reference: a melting point compilation (Tetko et al.; mined from patent text by program, amines drawn as free bases though some values may be those of a salt)

For O=Cc1scc2c1-c1cccc3cccc-2c13, the melting point was 123 to 126 °C. With O=c1c(-c2ccccc2)cc([N+](=O)[O-])c2n1CCc1ccsc1-2 the melting point was 180 to 182 °C. CN(C)Cc1ccc(C=CC(=O)O)s1 gave a melting point of 224 to 225 °C. COC(=O)C1Oc2ccc(C)cc2Cc2cc(C)ccc2O1 gave a melting point of 158 to 160 °C. Molecule CCOC(=O)COc1cc2cc(C3CCCC3)sc2c(Cl)c1Cl has a melting point of 65 to 67 °C. With O=[N+]([O-])c1cccc(S(=O)(=O)C(CCl)Sc2ccccc2)c1 (stereo unspecified) the melting point was 126 °C. O=S(=O)(c1ccccc1)n1c2cc(O)c(O)cc2c2cc(O)c(O)cc21 showed a melting point of 240 to 241 °C. With CN(c1cccc2cc(-c3ncc(CCc4nn[nH]n4)s3)[nH]c12)S(=O)(=O)c1cccs1 the melting point was 211 to 212 °C. CSCc1nc2c(N)nc3ccccc3c2n1Cc1ccccc1 showed a melting point of 217 to 219 °C. With C#Cc1cccc(Nc2ncnc3[nH]cc(-c4cccc([N+](=O)[O-])c4)c23)c1 the melting point was 189 to 190 °C. Work on COc1cccc(NC(=O)c2cc(C#N)cc(C)n2)c1 yielded a melting point of 189 °C. Work on CC(C)N(CC(O)CC(c1ccccc1)c1ccccc1)C(C)C (stereo unspecified) yielded a melting point of 55 to 59 °C. COc1ccc(C(=O)Cc2c(Cl)cncc2Cl)c2c1OCCCCO2 gave a melting point of 142 to 143 °C. For CN1C(=O)C(NC(=O)CC23CC4CC(CC(C)(C4)C2)C3)N=C(c2ccccc2)c2ccccc21 (racemic), the melting point was 195 to 196 °C. Molecule Cc1ccc(-c2c(-c3ccc(S(C)(=O)=O)cc3)cnn(-c3ccc(F)cc3)c2=O)cc1F has a melting point of 245 to 248 °C. Work on CCOC(=O)c1c2n(c3cc(F)c(F)cc3c1=O)CCCC2 yielded a melting point of 166 to 168 °C. For CN(C)C(=O)CC(=O)c1ccc(C(=O)CC(=O)N(C)C)cc1, the melting point was 188 to 189 °C. Molecule CCCCCCC(C(=O)O)n1cc(CC)c2cc(-c3ccccc3-c3nn[nH]n3)ccc21 (stereo unspecified) has a melting point of 110 to 113 °C. For CCC(=O)N(C)c1c(C(=O)c2cccc(Cl)c2)[nH]c2cc(Cl)ccc12, the melting point was 194 to 195 °C. Work on CC(C)Oc1ccccc1C1(N[C@H](CO)c2ccccc2)C(=O)Nc2ccc(Cl)cc21 (stereo partly specified) yielded a melting point of 193 °C. CNC(=O)c1cnn(C)c1C(=O)Nc1ccn2nc(-c3ccccc3)nc2c1 gave a melting point of over 250 °C. Molecule CNc1cc(Oc2cccc(C(F)(F)F)c2)nc(C(=O)O)c1 has a melting point of 66 to 68 °C. In the case of CCOC(=O)C1CCN(S(=O)(=O)c2ccc(Br)cc2)CC1, the melting point is reported as 132 to 133 °C. With C=CCOc1ccc(C#N)c(OC(C(=O)OC)c2ccccc2C)c1 (racemic) the melting point was 98 to 99 °C. Molecule c1ccc2c(N3CCCCC3)nc(N3CCCCC3)nc2c1 has a melting point of 128 to 131 °C. Work on CCCc1nn(C)c2c(OCCOc3ccc(CC(OCC)C(=O)O)cc3)nc(C)nc12 (stereo unspecified) yielded a melting point of 142 to 144 °C. With COc1ccc2cc([C@H](C)C(=O)OCCOc3ccc(OCCO[N+](=O)[O-])cc3)ccc2c1 the melting point was 67 to 69 °C. CCc1cc(O)c(C(C)=O)c(OC2OC(COC(C)=O)C(OC(C)=O)C(OC(C)=O)C2OC(C)=O)c1 (stereo unspecified) gave a melting point of 125 to 127 °C. CCCCCCCCCCCCCCCCNc1ccc(C(=O)NCC(=O)OCC)cc1 gave a melting point of 97.5 to 99.5 °C. In the case of Clc1ccc2c(c1)CCC(c1ccccc1)O2 (stereo unspecified), the melting point is reported as 71 to 72 °C. Work on COc1ccc(CNC(=O)c2cc(C)ccc2N)cc1 yielded a melting point of 144 to 145 °C. Work on Cc1oc(-c2ccco2)nc1COc1ccc(Cn2cc(CCC(=O)O)c(OCc3ccccc3)n2)cc1 yielded a melting point of 104 to 105 °C. O=C1N(CCCOCc2ccccc2)c2ccccc2C12COc1cc3c(cc12)OCCO3 (stereo unspecified) showed a melting point of 37 to 38 °C. Molecule O=C(NCCCOc1cccc(CN2CCCCC2)c1)Nc1ccc2c(c1)OCO2 has a melting point of 128 to 130 °C. O=c1c2cc(F)c(Cl)nc2n(-c2ccc(F)cc2F)c(=O)n1OCc1ccccc1 showed a melting point of 215 to 216 °C. With COC(=O)c1ccc(CCCNCC(O)c2cccc(Cl)c2)cc1 (stereo unspecified) the melting point was 89 to 92 °C. Molecule N#CC(c1ccncc1)c1nnc(Nc2ccc3ncsc3c2)c2ccccc12 (stereo unspecified) has a melting point of 163 to 164 °C. Molecule Cc1ccc(F)cc1C(=O)Nc1ccc(C(=O)N2Cc3cccn3Cc3ccccc32)cc1 has a melting point of 170 to 180 °C. For CN(C)CCCC1(O)c2ccccc2C=Cn2cc(C#N)cc21 (stereo unspecified), the melting point was 123 to 126 °C. NS(=O)(=O)c1ncc2ccccn12 gave a melting point of 179 to 180 °C. Cc1cc(-c2ccc3ncc(N)nc3c2)cc(C)c1O showed a melting point of 256 °C. Work on CCCCCCCC1=CCC(c2cc(F)c(F)c(F)c2)C=C1 (stereo unspecified) yielded a melting point of 14 °C. CCCCOc1ccc(S(=O)(=O)N2CC(NC[C@H](O)COc3ccc(O)cc3)C2)cc1 showed a melting point of 55 to 58 °C. Molecule O=C(Nc1nc(C(F)(F)F)c(I)s1)c1c(Cl)cccc1Cl has a melting point of 157 to 159 °C. In the case of C/C(=C\c1ccc(C(C)(C)C)cc1)CNc1cccc(-c2ccnc3c(C(=O)c4cccs4)cnn23)c1, the melting point is reported as 135 to 137 °C. Work on Nc1ccc2ccc(Oc3ccccc3Cl)nc2n1 yielded a melting point of 166 °C. In the case of Nc1nc2c(sc(=O)n2CCCCO)c(=O)[nH]1, the melting point is reported as 258 to 260 °C. In the case of COc1ccc(C(=O)CCCCCl)cc1S(=O)(=O)NC(C)C, the melting point is reported as 122 to 124 °C. In the case of C=CCSC1=C(O)CC(C)(C)CC1=O, the melting point is reported as 67.5 to 69.5 °C. CC(C)(C)c1cc(C(=O)ON(Cc2ccccc2)Cc2ccccc2)cc(C(C)(C)C)c1O showed a melting point of 90 to 92 °C. Cc1ccc(C2CNCc3[nH]c4ccccc4c32)cc1 (stereo unspecified) showed a melting point of 223 to 224 °C. Work on CC(Cc1ccc(OCc2ccccc2)cc1)NCC(O)c1cc2ccccc2o1 (stereo unspecified) yielded a melting point of 111 to 122 °C. Work on COc1cc2oc(C(=O)O)cc2cc1Cl yielded a melting point of 283 °C. Molecule CCOC(=O)Cn1c(=O)c(=O)[nH]c2cc(C(F)(F)F)ccc21 has a melting point of 250 to 251 °C. Work on CCCCCCCCS(=O)(=O)Nc1cc(C(=O)Nc2ccccc2)ccc1OC yielded a melting point of 154 to 155 °C. O=C1CCCN1CCCCCCN1CCCC1=O showed a melting point of 101 to 103 °C. COC(=O)c1ccc(Cl)cc1NC(=O)CSc1cccc(C)c1 showed a melting point of 75 to 77 °C. CCOc1ccc(C(c2ccc(C(C)(C)C)cc2)C(CC)[N+](=O)[O-])cc1 (stereo unspecified) gave a melting point of 95 to 97 °C. For CCOC(=O)c1cn(-c2cc(N)c(F)c(F)c2F)c2cc(F)c(F)cc2c1=O, the melting point was 116 to 124 °C. For CN(C)N=C(c1ccccc1)c1cc(C(C)(C)C)c(O)c(C(C)(C)C)c1, the melting point was 111 to 124 °C. Molecule O=c1cnc(C(F)(F)F)cn1-c1c(Cl)cc(C(F)(F)F)cc1[N+](=O)[O-] has a melting point of 145 to 147 °C. Molecule Cc1cc(-c2nc3ccccc3c(=O)n2-c2ccc(F)cc2)cc(C)c1OCCO has a melting point of 95 to 97 °C. With COc1cc(C2C3=C(COC3=O)Nc3ccc4cn[nH]c4c32)cc(OC)c1OC (stereo unspecified) the melting point was 278 to 279 °C. For CC(C)[C@H]1C(=O)OCN1C(=O)OCc1ccccc1, the melting point was 54 to 55 °C. In the case of Clc1cc(Cl)cc(-c2nc(-c3ccccn3)no2)c1, the melting point is reported as 162 to 166 °C. With Clc1ccc(/C=C/C2=CCN(Cc3ccccc3)CC2)cc1 the melting point was 123 to 125 °C. Work on CCCCCc1ccc(C(=O)CCCCC(=O)O)cc1 yielded a melting point of 84 to 86 °C. Work on COc1cccc(NC(=O)NCC(=O)N(c2ccccc2)c2ccccc2)c1 yielded a melting point of 182 °C. For CC(=O)O/N=C(\C)[C@H]1CC[C@H]2[C@@H]3CCC4=CC(=O)CC[C@]4(C)[C@H]3CC[C@]12C, the melting point was 158 to 160 °C. Clc1ncccc1-c1ccccc1 gave a melting point of 48 °C. CC(CCC(=O)O)C1CCC2C3=CC=C4C(C)(C)C(O)CCC4(C)C3CCC21C (stereo unspecified) gave a melting point of 210 to 213 °C.
